Results published in the kinase profiling compilation of Christmann-Franck et al. (2016).

target: EPHA1 (human) (UniProt P21709); experiment: radiometric filter-binding kinase assay, Kinase HotSpot; conditions: compound 0.5 µM; ATP 10 µM
Sequence (P21709 whole entry, looked up): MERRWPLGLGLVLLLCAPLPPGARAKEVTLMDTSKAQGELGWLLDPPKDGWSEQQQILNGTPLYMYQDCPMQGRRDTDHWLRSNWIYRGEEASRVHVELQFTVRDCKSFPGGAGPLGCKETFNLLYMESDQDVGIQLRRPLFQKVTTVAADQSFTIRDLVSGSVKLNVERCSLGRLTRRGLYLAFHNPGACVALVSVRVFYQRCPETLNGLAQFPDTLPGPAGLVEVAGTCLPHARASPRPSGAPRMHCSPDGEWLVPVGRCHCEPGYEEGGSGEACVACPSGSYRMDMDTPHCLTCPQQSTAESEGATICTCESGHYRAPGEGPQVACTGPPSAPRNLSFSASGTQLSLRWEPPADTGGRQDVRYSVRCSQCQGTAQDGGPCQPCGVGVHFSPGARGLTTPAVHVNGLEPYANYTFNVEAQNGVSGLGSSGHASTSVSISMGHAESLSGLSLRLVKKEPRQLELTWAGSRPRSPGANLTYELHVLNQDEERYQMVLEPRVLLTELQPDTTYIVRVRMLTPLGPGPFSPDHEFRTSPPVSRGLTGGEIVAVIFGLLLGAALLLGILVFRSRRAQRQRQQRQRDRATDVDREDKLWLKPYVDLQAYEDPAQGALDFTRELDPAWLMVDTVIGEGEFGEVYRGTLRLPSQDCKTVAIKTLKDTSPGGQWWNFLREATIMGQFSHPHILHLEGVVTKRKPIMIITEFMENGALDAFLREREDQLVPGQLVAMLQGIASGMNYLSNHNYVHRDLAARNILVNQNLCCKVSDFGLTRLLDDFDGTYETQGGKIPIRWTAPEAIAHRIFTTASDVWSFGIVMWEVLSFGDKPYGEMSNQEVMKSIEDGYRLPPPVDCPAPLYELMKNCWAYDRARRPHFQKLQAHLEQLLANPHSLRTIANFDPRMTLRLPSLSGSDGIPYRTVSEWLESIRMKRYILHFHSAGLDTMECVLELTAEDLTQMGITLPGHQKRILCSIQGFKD

Point of comparison: `NC(=O)c1ccc(N(C(N)=O)c2c(F)cccc2F)nc1-c1ccc(F)cc1F`, residual activity 99.1%. Against it:
- O=c1cc(-c2cccc3c2Sc2ccccc2S3)oc(N2CCOCC2)c1 — lower, 84.7%
- Nc1nc(Nc2ccc(S(N)(=O)=O)cc2)nn1C(=S)Nc1c(F)cccc1F — lower, 37.4%
- O=C1Cc2c([nH]c3ccc([N+](=O)[O-])cc23)-c2ccccc2N1 — lower, 94.8%

target: AKT1 (human) (UniProt P31749); experiment: as above; conditions: compound 0.5 µM; ATP 10 µM

Point of comparison: `O=C1Cc2c([nH]c3ccc([N+](=O)[O-])cc23)-c2ccccc2N1`, residual activity 107%. Against it:
- NC(=O)c1ccc(N(C(N)=O)c2c(F)cccc2F)nc1-c1ccc(F)cc1F — lower, 84.7%
- O=c1cc(-c2cccc3c2Sc2ccccc2S3)oc(N2CCOCC2)c1 — higher, 113%
- Nc1nc(Nc2ccc(S(N)(=O)=O)cc2)nn1C(=S)Nc1c(F)cccc1F — lower, 103%

target: MAPK12 (human) (UniProt P53778); experiment: as above; conditions: compound 0.5 µM; ATP 10 µM
Sequence (P53778 whole entry, looked up): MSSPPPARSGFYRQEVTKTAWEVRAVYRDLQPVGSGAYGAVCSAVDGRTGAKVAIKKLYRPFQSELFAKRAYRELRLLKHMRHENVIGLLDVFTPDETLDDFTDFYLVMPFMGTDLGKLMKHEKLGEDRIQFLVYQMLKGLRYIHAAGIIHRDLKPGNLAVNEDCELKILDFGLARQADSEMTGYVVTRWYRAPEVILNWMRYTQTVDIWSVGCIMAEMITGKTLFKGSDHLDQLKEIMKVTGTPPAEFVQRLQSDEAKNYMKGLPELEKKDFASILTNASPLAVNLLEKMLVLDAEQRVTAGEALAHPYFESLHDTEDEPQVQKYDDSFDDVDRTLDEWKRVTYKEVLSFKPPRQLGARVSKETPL

Point of comparison: `O=c1cc(-c2cccc3c2Sc2ccccc2S3)oc(N2CCOCC2)c1`, residual activity 114%. Against it:
- NC(=O)c1ccc(N(C(N)=O)c2c(F)cccc2F)nc1-c1ccc(F)cc1F — lower, 92.1%
- Nc1nc(Nc2ccc(S(N)(=O)=O)cc2)nn1C(=S)Nc1c(F)cccc1F — lower, 95.2%
- O=C1Cc2c([nH]c3ccc([N+](=O)[O-])cc23)-c2ccccc2N1 — lower, 112%

target: KDR (human) (UniProt P35968); experiment: as above; conditions: compound 0.5 µM; ATP 10 µM

Point of comparison: `O=C1Cc2c([nH]c3ccc([N+](=O)[O-])cc23)-c2ccccc2N1`, residual activity 87.8%. Against it:
- NC(=O)c1ccc(N(C(N)=O)c2c(F)cccc2F)nc1-c1ccc(F)cc1F — higher, 96.5%
- O=c1cc(-c2cccc3c2Sc2ccccc2S3)oc(N2CCOCC2)c1 — higher, 95.9%
- Nc1nc(Nc2ccc(S(N)(=O)=O)cc2)nn1C(=S)Nc1c(F)cccc1F — lower, 6.55%

target: NEK6 (human) (UniProt Q9HC98); experiment: as above; conditions: compound 0.5 µM; ATP 10 µM
Sequence (Q9HC98 whole entry, looked up): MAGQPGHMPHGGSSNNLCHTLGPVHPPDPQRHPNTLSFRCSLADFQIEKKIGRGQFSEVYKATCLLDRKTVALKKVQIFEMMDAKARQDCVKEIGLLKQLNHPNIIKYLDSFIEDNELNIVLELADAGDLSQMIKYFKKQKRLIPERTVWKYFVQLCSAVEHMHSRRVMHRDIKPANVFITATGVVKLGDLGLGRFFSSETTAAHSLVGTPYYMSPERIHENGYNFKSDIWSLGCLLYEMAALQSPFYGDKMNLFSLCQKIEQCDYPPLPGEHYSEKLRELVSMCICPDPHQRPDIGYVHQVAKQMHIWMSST

Point of comparison: `NC(=O)c1ccc(N(C(N)=O)c2c(F)cccc2F)nc1-c1ccc(F)cc1F`, residual activity 90.5%. Against it:
- O=c1cc(-c2cccc3c2Sc2ccccc2S3)oc(N2CCOCC2)c1 — higher, 103%
- Nc1nc(Nc2ccc(S(N)(=O)=O)cc2)nn1C(=S)Nc1c(F)cccc1F — lower, 78.8%
- O=C1Cc2c([nH]c3ccc([N+](=O)[O-])cc23)-c2ccccc2N1 — higher, 97.1%

target: GRK6 (human) (UniProt P43250); experiment: as above; conditions: compound 0.5 µM; ATP 10 µM
Sequence (P43250 whole entry, looked up): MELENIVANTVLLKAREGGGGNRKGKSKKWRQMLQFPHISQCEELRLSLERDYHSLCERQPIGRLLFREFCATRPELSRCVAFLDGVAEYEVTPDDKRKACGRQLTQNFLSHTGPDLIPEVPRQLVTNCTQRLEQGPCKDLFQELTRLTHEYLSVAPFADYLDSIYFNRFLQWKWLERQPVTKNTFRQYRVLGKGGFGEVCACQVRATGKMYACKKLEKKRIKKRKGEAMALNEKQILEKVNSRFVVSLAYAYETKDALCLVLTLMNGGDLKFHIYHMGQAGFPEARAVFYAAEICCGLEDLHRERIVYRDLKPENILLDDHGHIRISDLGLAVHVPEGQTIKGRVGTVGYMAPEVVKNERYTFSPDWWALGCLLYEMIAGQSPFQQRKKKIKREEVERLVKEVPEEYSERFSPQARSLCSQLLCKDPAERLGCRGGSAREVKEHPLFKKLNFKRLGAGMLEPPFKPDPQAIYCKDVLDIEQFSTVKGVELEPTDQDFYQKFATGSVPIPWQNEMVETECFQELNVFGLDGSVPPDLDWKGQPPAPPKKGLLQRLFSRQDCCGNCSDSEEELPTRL

Point of comparison: `O=C1Cc2c([nH]c3ccc([N+](=O)[O-])cc23)-c2ccccc2N1`, residual activity 93.8%. Against it:
- NC(=O)c1ccc(N(C(N)=O)c2c(F)cccc2F)nc1-c1ccc(F)cc1F — higher, 97.1%
- O=c1cc(-c2cccc3c2Sc2ccccc2S3)oc(N2CCOCC2)c1 — lower, 83%
- Nc1nc(Nc2ccc(S(N)(=O)=O)cc2)nn1C(=S)Nc1c(F)cccc1F — lower, 89.4%

target: CHEK2 (human) (UniProt O96017); experiment: as above; conditions: compound 0.5 µM; ATP 10 µM
Sequence (O96017 whole entry, looked up): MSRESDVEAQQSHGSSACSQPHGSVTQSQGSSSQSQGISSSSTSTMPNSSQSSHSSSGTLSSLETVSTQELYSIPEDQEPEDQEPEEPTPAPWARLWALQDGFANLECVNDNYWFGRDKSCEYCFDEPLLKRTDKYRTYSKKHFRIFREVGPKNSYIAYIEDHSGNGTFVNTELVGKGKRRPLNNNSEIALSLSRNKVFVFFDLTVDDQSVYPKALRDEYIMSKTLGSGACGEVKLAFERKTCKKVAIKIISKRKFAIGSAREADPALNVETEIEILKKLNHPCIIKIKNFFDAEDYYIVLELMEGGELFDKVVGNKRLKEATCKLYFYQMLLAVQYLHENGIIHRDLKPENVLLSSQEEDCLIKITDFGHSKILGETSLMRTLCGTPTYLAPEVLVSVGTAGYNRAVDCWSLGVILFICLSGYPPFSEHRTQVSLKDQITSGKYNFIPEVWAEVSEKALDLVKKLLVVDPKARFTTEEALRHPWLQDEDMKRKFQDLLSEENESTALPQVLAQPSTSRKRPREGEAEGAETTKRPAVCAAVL

Point of comparison: `O=c1cc(-c2cccc3c2Sc2ccccc2S3)oc(N2CCOCC2)c1`, residual activity 102%. Against it:
- NC(=O)c1ccc(N(C(N)=O)c2c(F)cccc2F)nc1-c1ccc(F)cc1F — lower, 97.6%
- Nc1nc(Nc2ccc(S(N)(=O)=O)cc2)nn1C(=S)Nc1c(F)cccc1F — lower, 1.96%
- O=C1Cc2c([nH]c3ccc([N+](=O)[O-])cc23)-c2ccccc2N1 — lower, 7.9%

target: MST1R (human) (UniProt Q04912); experiment: as above; conditions: compound 0.5 µM; ATP 10 µM
Sequence (Q04912 whole entry, looked up): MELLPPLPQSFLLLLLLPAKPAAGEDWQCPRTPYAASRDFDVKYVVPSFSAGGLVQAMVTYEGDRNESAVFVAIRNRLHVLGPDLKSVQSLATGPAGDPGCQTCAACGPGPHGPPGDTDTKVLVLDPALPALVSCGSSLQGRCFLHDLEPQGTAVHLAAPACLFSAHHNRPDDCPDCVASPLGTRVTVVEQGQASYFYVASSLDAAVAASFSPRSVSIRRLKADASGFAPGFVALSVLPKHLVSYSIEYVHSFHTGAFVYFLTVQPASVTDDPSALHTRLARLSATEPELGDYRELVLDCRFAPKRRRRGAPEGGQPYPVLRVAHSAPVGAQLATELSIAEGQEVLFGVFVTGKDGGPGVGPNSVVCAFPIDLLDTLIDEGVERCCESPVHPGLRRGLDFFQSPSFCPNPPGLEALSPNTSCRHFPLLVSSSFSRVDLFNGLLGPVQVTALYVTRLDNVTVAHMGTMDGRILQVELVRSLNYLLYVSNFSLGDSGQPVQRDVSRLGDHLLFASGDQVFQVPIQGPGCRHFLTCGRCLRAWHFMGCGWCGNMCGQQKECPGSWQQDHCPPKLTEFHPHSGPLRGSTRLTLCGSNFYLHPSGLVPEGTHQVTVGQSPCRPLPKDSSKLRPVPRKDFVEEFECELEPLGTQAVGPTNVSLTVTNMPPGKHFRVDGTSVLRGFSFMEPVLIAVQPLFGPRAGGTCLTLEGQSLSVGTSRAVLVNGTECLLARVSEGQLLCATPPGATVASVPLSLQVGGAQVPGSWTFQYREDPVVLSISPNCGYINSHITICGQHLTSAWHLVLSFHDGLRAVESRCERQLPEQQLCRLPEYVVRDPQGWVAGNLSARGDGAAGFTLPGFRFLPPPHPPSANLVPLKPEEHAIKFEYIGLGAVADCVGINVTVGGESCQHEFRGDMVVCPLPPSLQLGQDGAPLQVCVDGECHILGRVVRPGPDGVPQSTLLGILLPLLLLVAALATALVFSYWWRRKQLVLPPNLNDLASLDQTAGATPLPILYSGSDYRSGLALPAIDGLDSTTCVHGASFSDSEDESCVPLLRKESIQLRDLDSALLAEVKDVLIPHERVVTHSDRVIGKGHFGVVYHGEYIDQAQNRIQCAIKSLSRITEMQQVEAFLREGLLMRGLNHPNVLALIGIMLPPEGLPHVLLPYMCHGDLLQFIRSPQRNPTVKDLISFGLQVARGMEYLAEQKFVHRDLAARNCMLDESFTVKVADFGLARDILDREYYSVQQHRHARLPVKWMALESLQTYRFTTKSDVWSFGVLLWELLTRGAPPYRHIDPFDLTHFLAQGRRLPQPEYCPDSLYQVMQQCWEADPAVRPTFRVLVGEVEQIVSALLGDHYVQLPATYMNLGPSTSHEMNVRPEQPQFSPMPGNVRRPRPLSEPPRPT

Point of comparison: `Nc1nc(Nc2ccc(S(N)(=O)=O)cc2)nn1C(=S)Nc1c(F)cccc1F`, residual activity 56%. Against it:
- NC(=O)c1ccc(N(C(N)=O)c2c(F)cccc2F)nc1-c1ccc(F)cc1F — higher, 90.1%
- O=c1cc(-c2cccc3c2Sc2ccccc2S3)oc(N2CCOCC2)c1 — higher, 111%
- O=C1Cc2c([nH]c3ccc([N+](=O)[O-])cc23)-c2ccccc2N1 — higher, 103%

target: CSNK1G3 (human) (UniProt Q9Y6M4); experiment: as above; conditions: compound 0.5 µM; ATP 10 µM

Point of comparison: `NC(=O)c1ccc(N(C(N)=O)c2c(F)cccc2F)nc1-c1ccc(F)cc1F`, residual activity 103%. Against it:
- O=c1cc(-c2cccc3c2Sc2ccccc2S3)oc(N2CCOCC2)c1 — lower, 87.9%
- Nc1nc(Nc2ccc(S(N)(=O)=O)cc2)nn1C(=S)Nc1c(F)cccc1F — lower, 20.8%
- O=C1Cc2c([nH]c3ccc([N+](=O)[O-])cc23)-c2ccccc2N1 — lower, 90%

target: DDR2 (human) (UniProt Q16832); experiment: as above; conditions: compound 0.5 µM; ATP 10 µM
Sequence (Q16832 whole entry, looked up): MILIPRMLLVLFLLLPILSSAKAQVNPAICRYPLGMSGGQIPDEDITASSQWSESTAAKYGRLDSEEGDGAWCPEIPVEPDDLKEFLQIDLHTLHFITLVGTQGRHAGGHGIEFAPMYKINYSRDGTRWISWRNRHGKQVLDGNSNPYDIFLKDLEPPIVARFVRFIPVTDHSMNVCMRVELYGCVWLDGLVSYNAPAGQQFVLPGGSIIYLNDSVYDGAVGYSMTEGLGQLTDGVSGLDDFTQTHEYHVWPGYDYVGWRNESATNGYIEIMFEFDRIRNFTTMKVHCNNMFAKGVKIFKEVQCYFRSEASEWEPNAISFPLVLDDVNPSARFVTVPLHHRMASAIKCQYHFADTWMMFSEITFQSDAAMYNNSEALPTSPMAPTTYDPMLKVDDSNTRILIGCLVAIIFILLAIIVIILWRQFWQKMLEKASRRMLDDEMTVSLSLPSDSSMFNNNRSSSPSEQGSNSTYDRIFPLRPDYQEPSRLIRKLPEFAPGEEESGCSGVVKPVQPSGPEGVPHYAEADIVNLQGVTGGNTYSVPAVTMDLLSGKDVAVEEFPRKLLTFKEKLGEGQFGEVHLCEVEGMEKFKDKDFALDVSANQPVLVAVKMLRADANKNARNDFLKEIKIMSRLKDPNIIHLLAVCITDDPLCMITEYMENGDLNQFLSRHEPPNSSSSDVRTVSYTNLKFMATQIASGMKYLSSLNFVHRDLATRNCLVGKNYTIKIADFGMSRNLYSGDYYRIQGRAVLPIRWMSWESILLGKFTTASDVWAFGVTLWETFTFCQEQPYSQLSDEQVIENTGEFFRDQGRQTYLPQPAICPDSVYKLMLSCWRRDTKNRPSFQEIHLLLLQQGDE

Point of comparison: `Nc1nc(Nc2ccc(S(N)(=O)=O)cc2)nn1C(=S)Nc1c(F)cccc1F`, residual activity 130%. Against it:
- NC(=O)c1ccc(N(C(N)=O)c2c(F)cccc2F)nc1-c1ccc(F)cc1F — lower, 100%
- O=c1cc(-c2cccc3c2Sc2ccccc2S3)oc(N2CCOCC2)c1 — lower, 99.2%
- O=C1Cc2c([nH]c3ccc([N+](=O)[O-])cc23)-c2ccccc2N1 — lower, 103%

target: TSSK1B (human) (UniProt Q9BXA7); experiment: as above; conditions: compound 0.5 µM; ATP 10 µM

Point of comparison: `O=c1cc(-c2cccc3c2Sc2ccccc2S3)oc(N2CCOCC2)c1`, residual activity 107%. Against it:
- NC(=O)c1ccc(N(C(N)=O)c2c(F)cccc2F)nc1-c1ccc(F)cc1F — lower, 83%
